Laboratory results as given in ChEMBL document CHEMBL1123765, “Psychotropic agents: synthesis and antipsychotic activity of substituted beta-carbolines” (J Med Chem, 1987).

Legend:
Rattus norvegicus [1] = experiment: Antipsychotic activity was assessed by ability to block response of rats trained to avoid an electrical shock (inhibition of self-jump and/or discrete trial conditioned avoidance response(CAR) upon ip administration; assay type: functional
Rattus norvegicus [2] = experiment: Antipsychotic activity was assessed by ability to block response of rats trained to avoid an electrical shock (inhibition of self-jump and/or discrete trial conditioned avoidance response(CAR) upon ip administration; value ranges from 15-33; assay type: functional
Rattus norvegicus [3] = experiment: Antipsychotic activity was assessed by ability to block response of rats trained to avoid an electrical shock (inhibition of self-jump and/or discrete trial conditioned avoidance response(CAR) upon ip administration; value ranges from 33-37; assay type: functional
D(2) dopamine receptor [4] = biological target: T1, D(2) dopamine receptor (Rattus norvegicus, UniProt P61169); experiment: In vitro binding affinity for Dopamine receptor D2 of rat nucleus accumbens labeled with [3H]spiperone was determined at 10 uM concentration.
T1 sequence (P61169 whole entry): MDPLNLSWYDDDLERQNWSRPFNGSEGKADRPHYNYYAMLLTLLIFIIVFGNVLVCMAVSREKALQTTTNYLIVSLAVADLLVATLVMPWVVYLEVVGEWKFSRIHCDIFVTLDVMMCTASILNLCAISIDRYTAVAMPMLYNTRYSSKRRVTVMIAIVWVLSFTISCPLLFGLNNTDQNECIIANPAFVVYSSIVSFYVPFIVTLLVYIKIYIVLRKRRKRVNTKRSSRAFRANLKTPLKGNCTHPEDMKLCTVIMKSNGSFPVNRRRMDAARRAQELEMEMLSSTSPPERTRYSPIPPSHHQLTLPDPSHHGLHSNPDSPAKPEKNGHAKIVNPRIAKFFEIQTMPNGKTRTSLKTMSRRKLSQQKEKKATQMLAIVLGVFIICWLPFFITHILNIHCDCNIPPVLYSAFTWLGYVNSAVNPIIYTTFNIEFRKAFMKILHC

[5] = biological target: D(2) dopamine receptor (Rattus norvegicus) (UniProt P61169); experiment: In vitro binding affinity for Dopamine receptor D2 of rat nucleus accumbens labeled with [3H]spiperone was determined at 1 uM concentration
D(2) dopamine receptor (Rattus norvegicus), sequence (P61169 whole entry): as above

[6] = biological target: D(2) dopamine receptor (Rattus norvegicus) (UniProt P61169); experiment: In vitro binding affinity for Dopamine receptor D2 of rat nucleus accumbens labeled with [3H]spiperone was determined at 10 uM concentration
[7] = biological target: D(2) dopamine receptor (Rattus norvegicus) (UniProt P61169); experiment: In vitro binding affinity for Dopamine receptor D2 of rat nucleus accumbens labeled with [3H]-spiperone was determined at 1 uM concentration
Rattus norvegicus [8] = experiment: Antipsychotic activity was assessed by ability to block response of rats trained to avoid an electrical shock (inhibition of self-jump and/or discrete trial conditioned avoidance response(CAR) upon ip administration; value ranges from 15-22; assay type: functional
D(2) dopamine receptor [9] = biological target: T1, D(2) dopamine receptor; experiment: In vitro binding affinity for Dopamine receptor D2 of rat striatum labeled with [3H]-spiperone was determined
Rattus norvegicus [10] = experiment: Antipsychotic activity was assessed by ability to block response of rats trained to avoid an electrical shock (inhibition of self-jump and/or discrete trial conditioned avoidance response(CAR) upon ip administration; value ranges from 19-78; assay type: functional
Rattus norvegicus [11] = experiment: Antipsychotic activity was assessed by ability to block response of rats trained to avoid an electrical shock (inhibition of self-jump and/or discrete trial conditioned avoidance response(CAR) upon ip administration; value ranges from 30-62; assay type: functional
Rattus norvegicus [12] = experiment: Antipsychotic activity was assessed by ability to block response of rats trained to avoid an electrical shock (inhibition of self-jump and/or discrete trial conditioned avoidance response(CAR) upon ip administration; value ranges from 7-18; assay type: functional
Rattus norvegicus [13] = experiment: Antipsychotic activity was assessed by ability to block response of rats trained to avoid an electrical shock (inhibition of self-jump and/or discrete trial conditioned avoidance response(CAR) upon ip administration; value ranges from 9-24; assay type: functional
Rattus norvegicus [14] = experiment: Antipsychotic activity was assessed by ability to block response of rats trained to avoid an electrical shock (inhibition of self-jump and/or discrete trial conditioned avoidance response(CAR) upon po administration; value ranges from 30-33; assay type: functional
Rattus norvegicus [15] = experiment: Antipsychotic activity was assessed by ability to block response of rats trained to avoid an electrical shock (inhibition of self-jump and/or discrete trial conditioned avoidance response(CAR) upon ip administration; value ranges from 0.12-0.33; assay type: functional
Rattus norvegicus [16] = experiment: Antipsychotic activity was assessed by ability to block response of rats trained to avoid an electrical shock (inhibition of self-jump and/or discrete trial conditioned avoidance response(CAR) upon po administration; value ranges from 0.1-3.5; assay type: functional
[17] = biological target: D(2) dopamine receptor (Rattus norvegicus) (UniProt P61169); experiment: In vitro binding affinity for Dopamine receptor D2 of rat striatum labeled with [3H]-spiperone was determined at 10 uM concentration; assay type: tissue-based
[18] = biological target: D(2) dopamine receptor (Rattus norvegicus) (UniProt P61169); experiment: In vitro binding affinity for Dopamine receptor D2 of rat striatum labeled with [3H]spiperone was determined at 10 uM concentration; assay type: tissue-based
Rattus norvegicus [19] = experiment: Antipsychotic activity was assessed by ability to block response of rats trained to avoid an electrical shock (inhibition of self-jump and/or discrete trial conditioned avoidance response(CAR) upon ip administration; value ranges from 14-49; assay type: functional
Rattus norvegicus [20] = experiment: Antipsychotic activity was assessed by ability to block response of rats trained to avoid an electrical shock (inhibition of self-jump and/or discrete trial conditioned avoidance response (CAR) upon ip administration.* >40 indicates insignificant aactivity; assay type: functional
Rattus norvegicus [21] = experiment: Antipsychotic activity was assessed by ability to block response of rats trained to avoid an electrical shock (inhibition of self-jump and/or discrete trial conditioned avoidance response(CAR) upon ip administration.; assay type: functional
Rattus norvegicus [22] = experiment: Antipsychotic activity was assessed by ability to block response of rats trained to avoid an electrical shock (inhibition of self-jump and/or discrete trial conditioned avoidance response(CAR) upon po administration; value ranges from 2-3; assay type: functional
Rattus norvegicus [23] = experiment: Antipsychotic activity was assessed by ability to block response of rats trained to avoid an electrical shock (inhibition of self-jump and/or discrete trial conditioned avoidance response(CAR) upon ip administration; value ranges from 2-7; assay type: functional
Rattus norvegicus [24] = experiment: Antipsychotic activity was assessed by ability to block response of rats trained to avoid an electrical shock (inhibition of self-jump and/or discrete trial conditioned avoidance response(CAR) upon po administration; value ranges from 8-17; assay type: functional
Rattus norvegicus [25] = experiment: Antipsychotic activity was assessed by ability to block response of rats trained to avoid an electrical shock (inhibition of self-jump and/or discrete trial conditioned avoidance response(CAR) upon ip administration; value ranges from 6.5-7.5; assay type: functional

| SMILES | AB50 (Rattus norvegicus [1]) [mg/kg] | inhibition [5] [%] | other results |
| --- | --- | --- | --- |
| OC1(c2ccc(Cl)cc2)CCN(CCCn2c3c(c4ccccc42)CCN(CCc2ccccn2)C3)CC1 | >40 | – | – |
| c1cncc(CCCN2CCc3c([nH]c4ccccc34)C2)c1 | – | – | AB50 (Rattus norvegicus [2]): 21 mg/kg |
| c1cnc(N2CCN(CCCN3CCc4c([nH]c5ccccc45)C3)CC2)nc1 | – | – | AB50 (Rattus norvegicus [3]): 35 mg/kg |
| Clc1ccc2[nH]c3c(c2c1)CCN(CCc1ccc2ccccc2n1)C3 | >40 | – | – |
| Fc1ccc2[nH]c3c(c2c1)CCN(CCCCc1ccncc1)C3 | >40 | – | Ki (D(2) dopamine receptor [4]): 720 nM |
| c1ccc2c3c([nH]c2c1)CN(CCc1cnccn1)CC3 | – | 13 | – |
| Clc1cccc(N2CCN(CCCn3c4c(c5ccccc53)CCN(CCc3ccccn3)C4)CC2)c1 | >40 | – | – |
| Clc1ccc2[nH]c3c(c2c1)CCN(CCCCc1ccncc1)C3 | >40 | 51 | – |
| Fc1ccc2[nH]c3c(c2c1)CCN(CCc1ccc2ccccc2n1)C3 | 40 | – | – |
| FC(F)(F)c1cccc(N2CCN(CCCN3CCc4c([nH]c5ccccc45)C3)CC2)c1 | >40 | – | – |
| c1cncc(CCCN2CCc3c(n(CCCN4CCCCC4)c4ccccc34)C2)c1 | >40 | – | inhibition [6]: 26% |
| c1ccc(Cn2c3c(c4ccccc42)CCN(CCc2ccccn2)C3)cc1 | >40 | – | – |
| Clc1cccc(N2CCN(CCCN3CCc4c([nH]c5ccccc45)C3)CC2)c1 | >40 | – | – |
| COc1ccc2[nH]c3c(c2c1)CCN(CCc1ccncc1)C3 | – | – | inhibition [7]: 53% |
| c1ccc2c(CCCCN3CCc4c([nH]c5ccccc45)C3)ccnc2c1 | – | – | AB50 (Rattus norvegicus [8]): 18 mg/kg |
| c1ccc(CCN2CCc3c(n(CCCN4CCCCC4)c4ccccc34)C2)nc1 | >40 | – | inhibition [6]: 9% |
| c1ccc2nc(CCCCN3CCc4c([nH]c5ccccc45)C3)ccc2c1 | – | – | Ki (D(2) dopamine receptor [9]): 139 nM; AB50 (Rattus norvegicus [10]): 31 mg/kg |
| C[C@@H]1CN(CCCn2c3ccccc3c3ccccc32)C[C@H](C)N1 [RIMCAZOLE] | – | – | AB50 (Rattus norvegicus [11]): 39 mg/kg |
| Cn1c(CN2CCc3c([nH]c4ccccc34)C2)nc2ccccc21 | – | 6 | – |
| Fc1ccc2[nH]c3c(c2c1)CCN(CCc1ccccn1)C3 | 40 | 75 | – |
| CN(C)CCCn1c2c(c3ccccc31)CCN(CCCc1ccncc1)C2 | >40 | 0 | – |
| O=C(c1nccc2ccccc12)N1CCc2c([nH]c3ccccc23)C1 | >40 | 6 | – |
| FC(F)(F)c1ccc(CN2CCN(CCCN3CCc4c([nH]c5ccccc45)C3)CC2)cc1 | >40 | – | – |
| c1ccc2nc(CCN3CCc4c([nH]c5ccccc45)C3)ccc2c1 | – | – | Ki (D(2) dopamine receptor [9]): 211 nM; AB50 (Rattus norvegicus [12]): 10 mg/kg |

| SMILES | AB50 (Rattus norvegicus [1]) [mg/kg] | inhibition [5] [%] | other results |
| --- | --- | --- | --- |
| CC1CN(CCCN2CCc3c([nH]c4ccccc34)C2)CC(C)N1 (configuration not stated) | >40 | 38 | – |
| Clc1cccc(N2CCN(CCCn3c4c(c5ccccc53)CCN(CCCc3cccnc3)C4)CC2)c1 | >40 | – | – |
| c1ccc2c3c([nH]c2c1)CN(CCCCc1ccncc1)CC3 | – | – | Ki (D(2) dopamine receptor [9]): 525 nM; AB50 (Rattus norvegicus [13]): 14 mg/kg; AB50 (Rattus norvegicus [14]): 31 mg/kg |
| O=C(CCCN1CCC(O)(c2ccc(Cl)cc2)CC1)c1ccc(F)cc1 [HALOPERIDOL] | – | – | AB50 (Rattus norvegicus [15]): 0.2 mg/kg; AB50 (Rattus norvegicus [16]): 0.2 mg/kg |
| c1ccc2nc(CN3CCc4c([nH]c5ccccc45)C3)ccc2c1 | 48 | 7 | inhibition [17]: 7% |
| COc1ccc2[nH]c3c(c2c1)CCN(CCc1ccccn1)C3 | – | 8 | – |
| Fc1ccc(C(c2ccc(F)cc2)N2CCN(CCCN3CCc4c([nH]c5ccccc45)C3)CC2)cc1 | >40 | – | – |
| Fc1ccc(C(CCCN2CCc3c([nH]c4ccccc34)C2)c2ccc(F)cc2)cc1 | >40 | – | – |
| c1ccc2c3c([nH]c2c1)CN(Cc1ccncc1)CC3 | – | 13 | inhibition [18]: 27% |
| c1coc(CN2CCc3c([nH]c4ccccc34)C2)c1 | – | 7 | – |
| COc1ccc2[nH]c3c(c2c1)CCN(Cc1c(OC)cccc1OC)C3 | – | 15 | inhibition [6]: 27% |
| COc1cccc(OC)c1CN1CCc2c([nH]c3ccccc23)C1 | – | 15 | inhibition [6]: 27% |
| O=C(CCCn1c2c(c3ccccc31)CCN(CCc1ccccn1)C2)c1ccc(F)cc1 | >40 | – | – |
| c1ccc2c(N3CCc4c([nH]c5ccccc45)C3)ccnc2c1 | >40 | 7 | – |
| Fc1ccc2[nH]c3c(c2c1)CCN(CCCCc1ccnc2ccccc12)C3 | >40 | – | – |
| c1ccc2c(c1)c1c(n2CCCN2CCCCC2)CN(CCCc2ccncc2)CC1 | >40 | – | inhibition [6]: 22% |
| c1ccc(CCN2CCc3c([nH]c4ccccc34)C2)nc1 | – | 38 | AB50 (Rattus norvegicus [19]): 23 mg/kg |
| Clc1ccc2[nH]c3c(c2c1)CCN(CCc1ccncc1)C3 | – | – | AB50 (Rattus norvegicus [20]): >40 mg/kg |
| c1ccc2c3c([nH]c2c1)CN(CCCc1ccncc1)CC3 | – | – | AB50 (Rattus norvegicus [21]): 40 mg/kg |
| CN(C)CCCN1c2ccccc2Sc2ccc(Cl)cc21 [CHLORPROMAZINE] | – | – | AB50 (Rattus norvegicus [22]): 3 mg/kg; AB50 (Rattus norvegicus [23]): 4 mg/kg |
| CN1CCN(C2=Nc3cc(Cl)ccc3Nc3ccccc32)CC1 [CLOZAPINE] | – | – | AB50 (Rattus norvegicus [24]): 11 mg/kg; AB50 (Rattus norvegicus [25]): 7 mg/kg |
| c1ccc2c(CN3CCc4c([nH]c5ccccc45)C3)ccnc2c1 | >40 | 26 | – |
| CN(C)CCCn1c2c(c3ccccc31)CCN(CCCc1cccnc1)C2 | >40 | – | inhibition [6]: 17% |
